Source: ChEMBL document CHEMBL3872232, “2-Azetidinones: Synthesis and biological evaluation as potential anti-breast cancer agents” (Eur J Med Chem, 2016)
The source made the active and inactive calls. The rule behind the calls is not given here.

Columns and labels:
[1] = Antiproliferative activity against human MCF7 cells after 48 hrs by MTT assay; assay type: functional, cell-based; details: MCF7, 48 h
[2] = Antiproliferative activity against human MDA-MB-231 cells after 48 hrs by MTT assay; assay type: functional, cell-based; details: MDA-MB-231, 48 h
[3] = Antiproliferative activity against human mammary epithelial cells after 48 hrs by MTT assay; assay type: cell-based, Epithelial cell; details: Homo sapiens, Epithelial cell, 48 h; read-out: IC50
[4] = Safety index, ratio of compound IC50 to colchicine IC50 for human mammary epithelial cells; assay type: ADME, cell-based, Epithelial cell; details: read-out: Ratio IC50
MCF7 [5] = experiment: Induction of apoptosis in human MCF7 cells assessed as early apoptotic cells at 5 uM after 24 hrs by Annexin V-FITC/propidium iodide staining based flow cytometry (reference value: 1.6%); assay type: functional
MCF7 [6] = experiment: Induction of apoptosis in human MCF7 cells assessed as late apoptotic cells at 5 uM after 24 hrs by Annexin V-FITC/propidium iodide staining based flow cytometry (reference value: 2.3%); assay type: functional
MCF7 [7] = experiment: Induction of apoptosis in human MCF7 cells assessed as necrotic cells at 5 uM after 24 hrs by Annexin V-FITC/propidium iodide staining based flow cytometry (reference value: 3.7%); assay type: functional
MDA-MB-231 [8] = experiment: Induction of apoptosis in human MDA-MB-231 cells assessed as early apoptotic cells at 5 uM after 24 hrs by Annexin V-FITC/propidium iodide staining based flow cytometry (reference value: 0.5%); assay type: functional
MDA-MB-231 [9] = experiment: Induction of apoptosis in human MDA-MB-231 cells assessed as late apoptotic cells at 5 uM after 24 hrs by Annexin V-FITC/propidium iodide staining based flow cytometry (reference value: 1.8%); assay type: functional
MDA-MB-231 [10] = experiment: Induction of apoptosis in human MDA-MB-231 cells assessed as necrotic cells at 5 uM after 24 hrs by Annexin V-FITC/propidium iodide staining based flow cytometry (reference value: 1.3%); assay type: functional
MCF7 [11] = experiment: Induction of apoptosis in human MCF7 cells assessed as increase in necrotic cells at 5 uM after 24 hrs by Annexin V-FITC/propidium iodide staining based flow cytometry relative to colchicine; assay type: functional
MDA-MB-231 [12] = experiment: Effect on p53 gene expression in human MDA-MB-231 cells assessed as ratio of p53 to beta-actin expression level at 5 uM after 24 hrs by RT-PCR method (reference value: 0.22); assay type: functional
MDA-MB-231 [13] = experiment: Effect on Bid gene expression in human MDA-MB-231 cells assessed as ratio of Bid to beta-actin expression level at 5 uM after 24 hrs by RT-PCR method (reference value: 0.17); assay type: functional
MDA-MB-231 [14] = experiment: Ratio of Bcl-2 to Bax gene expression in human MDA-MB-231 cells at 5 uM after 24 hrs by RT-PCR method (reference value: 0.03); assay type: functional
[15] = Cell cycle arrest in human MCF7 cells assessed as accumulation at sub-G1 phase at 5 uM after 24 hrs by propidium iodide staining based flow cytometry (reference value: 3.58%); assay type: functional
[16] = Cell cycle arrest in human MCF7 cells assessed as accumulation at G0/G1 phase at 5 uM after 24 hrs by propidium iodide staining based flow cytometry (reference value: 83.25%); assay type: functional
[17] = Cell cycle arrest in human MCF7 cells assessed as accumulation at S phase at 5 uM after 24 hrs by propidium iodide staining based flow cytometry (reference value: 4.23%); assay type: functional
[18] = Cell cycle arrest in human MCF7 cells assessed as accumulation at G2/M phase at 5 uM after 24 hrs by propidium iodide staining based flow cytometry (reference value: 9.29%); assay type: functional
[19] = Cell cycle arrest in human MDA-MB-231 cells assessed as increase in cell accumulation at sub-G1 phase at 5 uM after 24 hrs by propidium iodide staining based flow cytometry; assay type: functional
MDA-MB-231 [20] = experiment: Effect on cyclin D1 mRNA expression in human MDA-MB-231 cells assessed as ratio of cyclin D1 to GAPDH expression level at 5 uM after 24 hrs by RT-PCR method (reference value: 0.71); assay type: functional
MDA-MB-231 [21] = experiment: Effect on cyclin E mRNA expression in human MDA-MB-231 cells assessed as ratio of cyclin E to GAPDH expression level at 5 uM after 24 hrs by RT-PCR method (reference value: 0.13); assay type: functional
MDA-MB-231 [22] = experiment: Effect on Cdk2 mRNA expression in human MDA-MB-231 cells assessed as ratio of Cdk2 to GAPDH expression level at 5 uM after 24 hrs by RT-PCR method (reference value: 0.26); assay type: functional
MDA-MB-231 [23] = experiment: Effect on Cdk6 mRNA expression in human MDA-MB-231 cells assessed as ratio of Cdk6 to GAPDH expression level at 5 uM after 24 hrs by RT-PCR method (reference value: 1.37); assay type: functional
MDA-MB-231 [24] = experiment: Effect on p21 mRNA expression in human MDA-MB-231 cells assessed as ratio of p21 to GAPDH expression level at 5 uM after 24 hrs by RT-PCR method (reference value: 0.02); assay type: functional
MDA-MB-231 [25] = experiment: Effect on p27 mRNA expression in human MDA-MB-231 cells assessed as ratio of p27 to GAPDH expression level at 5 uM after 24 hrs by RT-PCR method (reference value: 0.23); assay type: functional
MDA-MB-231 [26] = experiment: Inhibition of Akt in human MDA-MB-231 cells assessed as reduction in GSK-3beta phosphorylation after 48 hrs by immunoblot analysis; assay type: cell-based
MDA-MB-231 [27] = experiment: Inhibition of Akt phosphorylation in human MDA-MB-231 cells after 48 hrs by immunoblot analysis; assay type: cell-based
MCF7 [28] = experiment: Inhibition of Akt phosphorylation in human MCF7 cells after 48 hrs by immunoblot analysis; assay type: cell-based
MCF7 [29] = experiment: Inhibition of Akt in human MCF7 cells assessed as GSK-3beta phosphorylation reduction in after 48 hrs by immunoblot analysis; assay type: cell-based
Homo sapiens [30] = organism: Homo sapiens; experiment: Inhibition of Akt in human MDA-MB-231 cells assessed as ratio of phosphorylated Akt to GAPDH expression level at 5 uM after 48 hrs by immunoblot analysis (reference value: 0.33 to 0.81); assay type: cell-based
Homo sapiens [31] = organism: Homo sapiens; experiment: Inhibition of Akt in human MDA-MB-231 cells assessed as ratio of phosphorylated Akt to GAPDH expression level at 2 uM after 48 hrs by immunoblot analysis (reference value: 0.33 to 0.81); assay type: cell-based
Homo sapiens [32] = organism: Homo sapiens; experiment: Inhibition of Akt in human MDA-MB-231 cells assessed as ratio of phosphorylated Akt to GAPDH expression level at 10 uM after 48 hrs by immunoblot analysis (reference value: 0.33 to 0.81); assay type: cell-based
Homo sapiens [33] = organism: Homo sapiens; experiment: Inhibition of Akt in human MDA-MB-231 cells assessed as ratio of phosphorylated GSK-3beta to GAPDH expression level at 5 uM after 48 hrs by immunoblot analysis (reference value: 0.14 to 1.50); assay type: cell-based
Homo sapiens [34] = organism: Homo sapiens; experiment: Inhibition of Akt in human MDA-MB-231 cells assessed as ratio of phosphorylated GSK-3beta to GAPDH expression level at 2 uM after 48 hrs by immunoblot analysis (reference value: 0.14 to 1.50); assay type: cell-based
Homo sapiens [35] = organism: Homo sapiens; experiment: Inhibition of Akt in human MDA-MB-231 cells assessed as ratio of phosphorylated GSK-3beta to GAPDH expression level at 10 uM after 48 hrs by immunoblot analysis (reference value: 0.14 to 1.50); assay type: cell-based
MDA-MB-231 [36] = experiment: Inhibition of Akt in human MDA-MB-231 cells after 48 hrs by ELISA; assay type: cell-based
[37] = Cell cycle arrest in human MDA-MB-231 cells assessed as increase in cell accumulation at G2/M phase at 5 uM after 24 hrs by propidium iodide staining based flow cytometry; assay type: functional

| SMILES | IC50 [1] | IC50 [2] | IC50 [3] | Activity (MCF7 [5]) | Activity (MCF7 [6]) | Activity (MCF7 [7]) | Activity (MDA-MB-231 [8]) | Activity (MDA-MB-231 [9]) | Activity (MDA-MB-231 [10]) | Ratio (MDA-MB-231 [12]) | Ratio (MDA-MB-231 [13]) | Ratio (MDA-MB-231 [14]) | Activity [15] | Activity [16] | Activity [17] | Activity [18] | Ratio (MDA-MB-231 [20]) | Ratio (MDA-MB-231 [21]) | Ratio (MDA-MB-231 [22]) | Ratio (MDA-MB-231 [23]) | other results |
| --- | --- | --- | --- | --- | --- | --- | --- | --- | --- | --- | --- | --- | --- | --- | --- | --- | --- | --- | --- | --- | --- |
| CCOC(=O)/C(=C/c1ccccc1)CN1C(=O)[C@@H](OC)[C@H]1c1ccccc1Br | 5.79 µM | 6.86 µM | 66.6 µM | 4% | 6.7% | 13.1% | 2.2% | 5.4% | 0.9% | 0.25 | 0.56 | 0.01 | 12.9% | 71.2% | 5.17% | 9.11% | 0.47 | 0.03 | 0.18 | 0.19 | selectivity ratio [4]: 10; fold change (FC) (MCF7 [11]): 2; Activity [19]: Active; Ratio (MDA-MB-231 [24]): 0.03; Ratio (MDA-MB-231 [25]): 0.41; inhibition (MDA-MB-231 [26]): Dose-dependent effect; inhibition (MDA-MB-231 [27]): Dose-dependent effect; inhibition (MCF7 [28]): Dose-dependent effect; inhibition (MCF7 [29]): Dose-dependent effect; Ratio (Homo sapiens [30]): 0.03; Ratio (Homo sapiens [31]): 0.16; Ratio (Homo sapiens [32]): 0.01; Ratio (Homo sapiens [33]): 0.61; Ratio (Homo sapiens [34]): 1.16; Ratio (Homo sapiens [35]): 0.58; inhibition (MDA-MB-231 [36]): Dose-dependent effect |
| COc1cc2c(c(OC)c1OC)-c1ccc(OC)c(=O)cc1[C@@H](NC(C)=O)CC2 [COLCHICINE] | 0.072 µM | 3.55 µM | 9.26 µM | 1% | 1.8% | 6.5% | 2.3% | 5.8% | 0.9% | 0.3 | 0.42 | 0.1 | 7.4% | 66.2% | 10.3% | 16.2% | 1.5 | 0.19 | 0.39 | 1.56 | Ratio (MDA-MB-231 [24]): 0.6; Ratio (MDA-MB-231 [25]): 0.6; Ratio (Homo sapiens [30]): 0.23 to 0.44; Ratio (Homo sapiens [33]): 0.12 to 1.45; Activity [37]: Active |
